Assay results reported in paper PMC9578396, “Intrinsic Antibacterial Activity of Xeruborbactam In Vitro: Assessing Spectrum and Mode of Action” (Antimicrobial Agents and Chemotherapy, 2022).
Read-outs that look alike come from different tables or passages of the source.

What was measured:
Pseudomonas aeruginosa = assay: Broth microdilution MIC (CLSI), Pseudomonas aeruginosa; assay type: cell-based
From the text: (§1) (i) Panels of engineered bacterial strains containing various combinations of porin and efflux mutations were used. The construction of all the strains used in the study is described in detail in references, [44], and [45]. (ii) KPC-producing clinical isolates and their derivatives that lost KPC plasmids were used also. These strains and their origins are described in the Table S2. (iii) Finally, KPC-producing clinical isolates enriched in strains with porin mutations were used. The mutations identified include various deletions, insertions, nonsense mutations, and decreased expression. Most of the isolates were obtained from JMI Laboratories or International Health Management Associates (IHMA); they were collected in the course of global surveillance studies.
(§2) Bacterial isolates were subjected to broth microdilution susceptibility testing, performed according to Clinical and Laboratory Standards Institute (CLSI) methods ([46]), using panels prepared in-house. […] Xeruborbactam was synthesized at Qpex Biopharma, San Diego, CA. Avibactam was purchased from eNovation Chemicals LLC, Bridgewater, NJ, USA; zidebactam was from MedKoo Biosciences, Inc., Morrisville, NC, and nacubactam was from Advanced ChemBlocks, Hayward, CA. Durlobactam was synthesized at Acme Bioscience, Palo Alto, CA, USA.

Acinetobacter baumannii = assay: Broth microdilution MIC (CLSI), Acinetobacter baumannii; assay type: cell-based; conditions: Acinetobacter baumannii
From the text: as §1, §2

[1] = tested on: A. baumannii strain ATCC 17978; assay: Fluorescence microscopy, cellular morphology; assay type: cell-based, Acinetobacter baumannii; conditions: xeruborbactam, meropenem 1× and 2× MIC; aztreonam 2× MIC; amdinocillin 2 μg/mL
Experimental: Single colonies of K. pneumoniae strain KPM1026a, A. baumannii strain ATCC 17978, and P. aeruginosa strain PAM1154 were picked from LB agar plates, inoculated in cation-adjusted Mueller-Hinton broth (CA-MHB), and incubated overnight at 30°C with rolling. Overnight cultures were diluted into fresh CA-MHB and incubated at 30°C, with rolling, until they reached an OD600 of ≈0.12 to 0.15 (equivalent to ~2 × 10^8 CFU/mL). Samples were then treated with compounds and incubated at 30°C, with rolling. After 1 or 2 h of treatment, cells were collected and stained with a dye mix containing FM4-64 (1 μg/mL), DAPI (4′,6-diamidino-2-phenylindole) (2 μg/mL), and SYTOX green (0.5 μM) (Molecular Probes, Invitrogen, or Thermo Fisher Scientific). Cells were transferred onto an agarose pad containing 1.2% agarose and 20% LB medium for microscopy. Microscopy was performed as previously described ([34]).

Escherichia coli = assay: Broth microdilution MIC (CLSI), Escherichia coli; assay type: cell-based
From the text: as §1, §2

C[C@H]1[C@H](NC(=O)/C(=N\OC(C)(C)C(=O)O)c2csc(N)n2)C(=O)N1S(=O)(=O)O [Aztreonam]
16 µg/mL: MIC (Pseudomonas aeruginosa; Pseudomonas aeruginosa, strain PAM1032, nalB (MexAB-OprM overexpression)) | MIC (Acinetobacter baumannii; AB1007, xeruborbactam 4 µg/ml, read-out: MIC) | MIC (Acinetobacter baumannii; strain ACM1014, ΔadeABC) | MIC (Acinetobacter baumannii; strain ACM1030, adeS (AdeABC overexpression))
1 µg/mL: MIC (Pseudomonas aeruginosa; Pseudomonas aeruginosa, strain 1104168, alone, read-out: MIC) | MIC (Pseudomonas aeruginosa; Pseudomonas aeruginosa, strain 1125954, alone, read-out: MIC) | MIC (Pseudomonas aeruginosa; Pseudomonas aeruginosa, strain PAM1033, nfxB (MexCD-OprJ overexpression)) | MIC (Acinetobacter baumannii; strain ACM1013, ΔadeIJK) | MIC (Acinetobacter baumannii; strain ACM1015, ΔadeIJK ΔadeABC)
32 µg/mL: MIC (Pseudomonas aeruginosa; Pseudomonas aeruginosa, strain 1113238, alone, read-out: MIC) | MIC (Pseudomonas aeruginosa; Pseudomonas aeruginosa, strain 1118234, alone, read-out: MIC) | MIC (Pseudomonas aeruginosa; Pseudomonas aeruginosa, strain 1119418, alone, read-out: MIC) | MIC (Acinetobacter baumannii; AB1007 (no beta-lactamase), xeruborbactam 0 µg/ml, read-out: MIC) | MIC (Acinetobacter baumannii; AB1007, xeruborbactam 2 µg/ml, read-out: MIC) | MIC (Acinetobacter baumannii; ATCC17978, strain ATCC 17978 (Fig. 6), read-out: MIC) | MIC (Acinetobacter baumannii; strain AB1007, wild type, read-out: MIC)
32: MIC (Escherichia coli; EC1103, PBP2 same as MG1655, PBP3 YRIN ins, Q227H, E349K, I532L)
64 µg/mL: MIC (Pseudomonas aeruginosa; Pseudomonas aeruginosa, strain 1097436, alone, read-out: MIC) | MIC (Acinetobacter baumannii; strain ACM1027, adeN (AdeIJK overexpression))
4 µg/mL: MIC (Pseudomonas aeruginosa; Pseudomonas aeruginosa, strain 1113634, alone, read-out: MIC) | MIC (Pseudomonas aeruginosa; Pseudomonas aeruginosa, strain 1128674, alone, read-out: MIC) | MIC (Pseudomonas aeruginosa; Pseudomonas aeruginosa, strain PAM1020, wild type, read-out: MIC) | MIC (Pseudomonas aeruginosa; Pseudomonas aeruginosa, strain PAM1034, nfxC (MexEF-OprN overexpression)) | MIC (Acinetobacter baumannii; AB1007, xeruborbactam 8 µg/ml, read-out: MIC)
> 64: MIC (Escherichia coli; EC1088, PBP2 A308G, PBP3 same as MG1655) | MIC (Escherichia coli; EC1097, PBP2 M574I, PBP3 Q227H) | MIC (Escherichia coli; EC1105, PBP2 A543T, PBP3 YRIN ins, Q227H, E349K, I532L) | MIC (Escherichia coli; EC1119, PBP2 same as MG1655, PBP3 YRIN ins, Q227H, E349K, I532L) | MIC (Escherichia coli; EC1121, PBP2 V217M, PBP3 YRIN ins, E349K, I532L)
> 64 µg/mL: MIC (Pseudomonas aeruginosa; Pseudomonas aeruginosa, strain 1125996, alone, read-out: MIC) | MIC (Pseudomonas aeruginosa; Pseudomonas aeruginosa, strain 1126957, alone, read-out: MIC) | MIC (Pseudomonas aeruginosa; Pseudomonas aeruginosa, strain 1130447, alone, read-out: MIC)
2 µg/mL: MIC (Pseudomonas aeruginosa; Pseudomonas aeruginosa, strain 1106973, alone, read-out: MIC) | MIC (Pseudomonas aeruginosa; Pseudomonas aeruginosa, strain 1116849, alone, read-out: MIC) | MIC (Pseudomonas aeruginosa; Pseudomonas aeruginosa, strain 1128636, alone, read-out: MIC)
0.5 µg/mL: MIC (Pseudomonas aeruginosa; PAM1154 (oprM::Hg), xeruborbactam 0 µg/ml) | MIC (Pseudomonas aeruginosa; Pseudomonas aeruginosa, strain 1089003, alone, read-out: MIC) | MIC (Pseudomonas aeruginosa; Pseudomonas aeruginosa, strain 1098916, alone, read-out: MIC) | MIC (Pseudomonas aeruginosa; Pseudomonas aeruginosa, strain 1104284, alone, read-out: MIC) | MIC (Pseudomonas aeruginosa; Pseudomonas aeruginosa, strain 1109744, alone, read-out: MIC) | MIC (Pseudomonas aeruginosa; Pseudomonas aeruginosa, strain 1116835, alone, read-out: MIC) | MIC (Pseudomonas aeruginosa; Pseudomonas aeruginosa, strain 1126521, alone, read-out: MIC) | MIC (Pseudomonas aeruginosa; Pseudomonas aeruginosa, strain 1126982, alone, read-out: MIC)
64: MIC (Escherichia coli; EC1078, PBP2 same as MG1655, PBP3 I332V) | MIC (Escherichia coli; EC1081, PBP2 same as MG1655, PBP3 Q227H) | MIC (Escherichia coli; EC1098, PBP2 V217M, PBP3 YRIN ins, I532L)
0.03 µg/mL: MIC (Escherichia coli; Escherichia coli, strain ECM5497, wild type, read-out: MIC) | MIC (Escherichia coli; Escherichia coli, strain ECM6001, ΔacrB)
increase in cell length: cellular morphology [1]
2: MIC (Escherichia coli; EC1085, PBP2 T331P, PBP3 A233T I332V)
